Several values for one entry are separate records, joined by “and”; a condition that tells them apart may be missing. Equal values may be shown once. Inconclusive results and toxic doses are left out.

This test concerns CD2F1 mice, L1210 leukemia ip, survival T/C. The test can be described thus: NCI In Vivo Anticancer Drug Screen. Data for tumor model L1210 Leukemia (intraperitoneal) in CD2F1 (CDF1) mice. Conditions: higher = longer survival. In a few lines:
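Implant tumor; dose compound or vehicle; measure endpoint in both groups; report treated divided by control.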

The mark [1] stands for this setting: endpoint: mean survival time, dose: 100.0 mg/kg/injection, schedule: Q04DX003 (ip), vehicle: saline with Tween-80.
The mark [2] stands for this setting: endpoint: mean survival time, dose: 200.0 mg/kg/injection, schedule: Q04DX003 (ip), vehicle: saline with Tween-80.
Setting [3] is: endpoint: mean survival time, dose: 400.0 mg/kg/injection, schedule: Q04DX003 (ip), vehicle: saline with Tween-80.
The mark [4] stands for this setting: endpoint: mean survival time, dose: 100.0 mg/kg/injection, schedule: Q04DX003 (ip), vehicle: saline.
[5] abbreviates: endpoint: mean survival time, dose: 200.0 mg/kg/injection, schedule: Q04DX003 (ip), vehicle: saline.
The mark [6] stands for this setting: endpoint: mean survival time, dose: 400.0 mg/kg/injection, schedule: Q04DX003 (ip), vehicle: saline.
Where [7] appears, read: endpoint: mean survival time, dose: 100.0 mg/kg/injection, schedule: Q01DX001 (ip), vehicle: saline with Tween-80.
[8] abbreviates: endpoint: mean survival time, dose: 200.0 mg/kg/injection, schedule: Q01DX001 (ip), vehicle: saline with Tween-80.
The mark [9] stands for this setting: endpoint: mean survival time, dose: 400.0 mg/kg/injection, schedule: Q01DX001 (ip), vehicle: saline with Tween-80.
The mark [10] stands for this setting: endpoint: mean survival time, dose: 25.0 mg/kg/injection, schedule: Q01DX001 (ip), vehicle: saline with Tween-80.

`CN(C)/C=N/c1c(CO)c(-c2ccccc2)nn1-c1ccccc1`: the T/C was 101 % of control under setting [1], 95 % of control under setting [2] and 95 % of control under setting [3].
For the molecule `COc1ccc(/C=N/O)cc1`, the T/C was 102 % of control (endpoint: mean survival time, dose: 75.0 mg/kg/injection, schedule: Q01DX001 (ip), vehicle: saline); 100 % of control (endpoint: mean survival time, dose: 150.0 mg/kg/injection, schedule: Q01DX001 (ip), vehicle: saline); 101 % of control (endpoint: mean survival time, dose: 300.0 mg/kg/injection, schedule: Q01DX001 (ip), vehicle: saline).
With `O=C(O)C1=CC(O)C(O)C(O)C1` (stereo not drawn), the T/C is, setting by setting: under setting [4], 102 % of control; under setting [5], 96 % of control; under setting [6], 90 % of control.
As to `O=C1C(Cl)=CC(=NS(=O)(=O)c2ccccc2)C=C1Cl`, the T/C runs as follows: (endpoint: mean survival time, dose: 6.25 mg/kg/injection, schedule: Q04DX003 (ip), vehicle: saline with Tween-80) 100 % of control; (endpoint: mean survival time, dose: 12.5 mg/kg/injection, schedule: Q04DX003 (ip), vehicle: saline with Tween-80) 94 % of control; (endpoint: mean survival time, dose: 25.0 mg/kg/injection, schedule: Q04DX003 (ip), vehicle: saline with Tween-80) 103 % of control.
In the case of `CCOC(=O)c1ncn(C2OC(CO)C(O)C2O)c1N` (stereo not drawn), the T/C reads like this: (endpoint: mean survival time, dose: 12.5 mg/kg/injection, schedule: Q01DX005 (ip), vehicle: water) 97 % of control; (endpoint: mean survival time, dose: 25.0 mg/kg/injection, schedule: Q01DX005 (ip), vehicle: water) 98 % of control; (endpoint: mean survival time, dose: 50.0 mg/kg/injection, schedule: Q01DX005 (ip), vehicle: water) 103 % of control; (endpoint: mean survival time, dose: 100.0 mg/kg/injection, schedule: Q01DX005 (ip), vehicle: water) 101 % of control; (endpoint: mean survival time, dose: 200.0 mg/kg/injection, schedule: Q01DX005 (ip), vehicle: water) 97 % of control.
`CC1CCCCCCCCCCC12OCCO2` (stereo not drawn): the T/C by setting is: (endpoint: mean survival time, dose: 100.0 mg/kg/injection, schedule: Q04DX002 (ip), vehicle: saline with Tween-80) 87 % of control; (endpoint: mean survival time, dose: 200.0 mg/kg/injection, schedule: Q04DX002 (ip), vehicle: saline with Tween-80) 98 % of control; (endpoint: mean survival time, dose: 400.0 mg/kg/injection, schedule: Q04DX002 (ip), vehicle: saline with Tween-80) 106 % of control.
Regarding `Cc1ccc(C(=O)/C=C/c2ccccc2)cc1`, the T/C reads like this: (endpoint: mean survival time, dose: 25.0 mg/kg/injection, schedule: Q01DX009 (ip), vehicle: Klucel (hydroxypropylcellulose) (HPC)) 86 % of control; (endpoint: mean survival time, dose: 50.0 mg/kg/injection, schedule: Q01DX009 (ip), vehicle: Klucel (hydroxypropylcellulose) (HPC)) 88 % of control; under setting [7], 108 % of control; (endpoint: mean survival time, dose: 100.0 mg/kg/injection, schedule: Q01DX009 (ip), vehicle: Klucel (hydroxypropylcellulose) (HPC)) 86 % of control; under setting [8], 100 % of control; (endpoint: mean survival time, dose: 200.0 mg/kg/injection, schedule: Q01DX009 (ip), vehicle: Klucel (hydroxypropylcellulose) (HPC)) 86 % of control. Under setting [9], the T/C was 100 % of control.
For the molecule `OCC1CC=CCC1` (stereo not drawn), the T/C was 97 % of control under setting [1], 90 % of control under setting [2] and 95 % of control under setting [3].
Consider `COC(Cn1cnc2c(N)ncnc21)OC`, for which the T/C runs as follows: under setting [4], 110 % of control; under setting [5], 98 % of control; under setting [6], 112 % of control.
With `O=S(=O)(Cl)c1ccc2cc3ccccc3cc2c1`, the T/C reads like this: (endpoint: mean survival time, dose: 50.0 mg/kg/injection, schedule: Q04DX003 (ip), vehicle: saline) 96 % of control; (endpoint: mean survival time, dose: 100.0 mg/kg/injection, schedule: Q01DX001 (ip), vehicle: saline) 94 % of control; under setting [4], 96 % of control; (endpoint: mean survival time, dose: 200.0 mg/kg/injection, schedule: Q01DX001 (ip), vehicle: saline) 101 % of control; under setting [5], 102 % of control.
Turning to `COc1cccc(C(O)c2ccncc2)c1OC` (stereo not drawn), the T/C by setting is: (endpoint: mean survival time, dose: 25.0 mg/kg/injection, schedule: Q01DX009 (ip), vehicle: water) 96 % of control; (endpoint: mean survival time, dose: 50.0 mg/kg/injection, schedule: Q01DX009 (ip), vehicle: water) 105 % of control; (endpoint: mean survival time, dose: 100.0 mg/kg/injection, schedule: Q01DX009 (ip), vehicle: water) 98 % of control; (endpoint: mean survival time, dose: 200.0 mg/kg/injection, schedule: Q01DX009 (ip), vehicle: water) 93 % of control; (endpoint: mean survival time, dose: 400.0 mg/kg/injection, schedule: Q01DX009 (ip), vehicle: water) 91 % of control.
Take `COC1CC(C)C(OC)c2cc(O)cc(c2O)NC(=O)/C(C)=C/C=C\C(C)C(OC(N)=O)/C(C)=C\C(C)C1OC` (stereo not drawn): the T/C (endpoint: median survival time, dose: 1.25 mg/kg/injection, schedule: Q01DX009 (ip), vehicle: saline + alcohol) is 105 % of control; the T/C (endpoint: median survival time, dose: 2.5 mg/kg/injection, schedule: Q01DX009 (ip), vehicle: saline + alcohol) was 105 % of control; the T/C (endpoint: median survival time, dose: 5.0 mg/kg/injection, schedule: Q01DX009 (ip), vehicle: saline + alcohol) is 105 % of control; the T/C (endpoint: median survival time, dose: 10.0 mg/kg/injection, schedule: Q01DX009 (ip), vehicle: saline + alcohol) was 110 % of control; the T/C (endpoint: median survival time, dose: 20.0 mg/kg/injection, schedule: Q01DX009 (ip), vehicle: saline + alcohol) is 107 % of control.
Turning to `COC(CNC1=C(C)C(=O)C2=C(C1=O)[C@H](COC(N)=O)[C@]1(OC)[C@@H]3N[C@@H]3CN21)OC`, the T/C (endpoint: mean survival time, dose: 1.5 mg/kg/injection, schedule: Q01DX001 (ip), vehicle: water) was 118 % of control; the T/C (endpoint: mean survival time, dose: 3.0 mg/kg/injection, schedule: Q01DX001 (ip), vehicle: water) is 119 % of control and 109 % of control; the T/C (endpoint: mean survival time, dose: 6.0 mg/kg/injection, schedule: Q01DX001 (ip), vehicle: water) was 119 % of control; the T/C (endpoint: mean survival time, dose: 24.0 mg/kg/injection, schedule: Q01DX001 (ip), vehicle: water) is 151 % of control and 296 % of control; the T/C (endpoint: mean survival time, dose: 48.0 mg/kg/injection, schedule: Q01DX001 (ip), vehicle: water) is 86 % of control.
`c1cnc2c(c1)ccc1ncccc12`: the T/C (endpoint: mean survival time, dose: 12.5 mg/kg/injection, schedule: Q01DX009 (ip), vehicle: saline with Tween-80) is 91 % of control; the T/C (endpoint: mean survival time, dose: 25.0 mg/kg/injection, schedule: Q01DX009 (ip), vehicle: saline with Tween-80) is 109 % of control; the T/C (endpoint: mean survival time, dose: 50.0 mg/kg/injection, schedule: Q01DX009 (ip), vehicle: saline with Tween-80) was 96 % of control.
`CC[As](=O)(O)c1ccc([N+](=O)[O-])cc1`: the T/C is, setting by setting: under setting [10], 98 % of control; (endpoint: mean survival time, dose: 50.0 mg/kg/injection, schedule: Q01DX001 (ip), vehicle: saline with Tween-80) 96 % of control.
Take `O=P(O)(O)OC1OC(n2cnc3c(NCc4ccc(F)cc4)ncnc32)C(O)C1O` (stereo not drawn): the T/C is 101 % of control (endpoint: median survival time, dose: 12.5 mg/kg/injection, schedule: Q01DX005 (ip), vehicle: saline); 101 % of control (endpoint: median survival time, dose: 25.0 mg/kg/injection, schedule: Q01DX005 (ip), vehicle: saline); 92 % of control (endpoint: median survival time, dose: 50.0 mg/kg/injection, schedule: Q01DX005 (ip), vehicle: saline); 92 % of control (endpoint: median survival time, dose: 100.0 mg/kg/injection, schedule: Q01DX005 (ip), vehicle: saline); 100 % of control (endpoint: median survival time, dose: 200.0 mg/kg/injection, schedule: Q01DX005 (ip), vehicle: saline).
As to `O/N=C1/CCCC/C1=C/c1ccccc1Cl`, the T/C was 95 % of control (endpoint: mean survival time, dose: 100.0 mg/kg/injection, schedule: Q01DX009 (ip), vehicle: saline with Tween-80); 97 % of control (endpoint: mean survival time, dose: 200.0 mg/kg/injection, schedule: Q01DX009 (ip), vehicle: saline with Tween-80); 100 % of control (endpoint: mean survival time, dose: 400.0 mg/kg/injection, schedule: Q01DX009 (ip), vehicle: saline with Tween-80).
`CNC(=O)Nc1cc(OC)ccc1OC`: the T/C is, setting by setting: under setting [7], 106 % of control; under setting [8], 106 % of control; under setting [9], 102 % of control.
Regarding `Sc1c(Cl)c(Cl)c(Cl)c(Cl)c1Cl`, the T/C was 96 % of control (endpoint: mean survival time, dose: 100.0 mg/kg/injection, schedule: Q04DX002 (ip), vehicle: Klucel (hydroxypropylcellulose) (HPC)); 90 % of control (endpoint: mean survival time, dose: 200.0 mg/kg/injection, schedule: Q04DX002 (ip), vehicle: Klucel (hydroxypropylcellulose) (HPC)); 90 % of control (endpoint: mean survival time, dose: 400.0 mg/kg/injection, schedule: Q04DX002 (ip), vehicle: Klucel (hydroxypropylcellulose) (HPC)).
Take `COc1cc2c(cc1OC)C(CCN)NCC2` (stereo not drawn): the T/C is 97 % of control under setting [7], 100 % of control under setting [8] and 94 % of control under setting [9].
As for `N#CCCP(CCC#N)CCCCP(CCC#N)CCC#N`, the T/C (endpoint: mean survival time, dose: 6.25 mg/kg/injection, schedule: Q01DX001 (ip), vehicle: saline with Tween-80) was 100 % of control; the T/C (endpoint: mean survival time, dose: 12.5 mg/kg/injection, schedule: Q01DX001 (ip), vehicle: saline with Tween-80) is 96 % of control; the T/C under setting [10] was 98 % of control and 102 % of control.
